Reference: patent US10130633B2, “Compounds” (BAYER PHARMA AKTIENGESELLSCHAFT, priority 2013, dated 2018)

Key:
[1] = tested on: constitutive active colorectal cancer cell (CRC) Wnt pathway; assay: HCT116 TOPFlash cellular reporter assay (Super TopFlash luciferase), constitutive active Wnt pathway; assay type: cell-based; details: HCT116 TOP reporter cells, 36 hours incubation, luciferase expression
Description: In order to discover and characterize small molecules which inhibit the constitutive active colorectal cancer cell (CRC) Wnt pathway, a cellular reporter assay was employed. […] Stable transfectants were generated by cotransfection with pcDNA3 and selection of stable transfected cells with 1 mg/ml G418.

[2] = tested on: HCT116 FOP control reporter cell line; assay: HCT116 FOPFlash control reporter assay (FOP control vector, non-functional TCF elements); assay type: cell-based; details: HCT116 FOP control reporter cells, 36 hours incubation, luciferase expression
Description: In a parallel approach, HCT116 cells were cotransfected with the FOP control vector and pcDNA3. The FOP vector is identical to the TOP construct, but it contains instead of functional TCF elements a randomized, non-functional sequence. For this transfection a stable transfected cell line was generated as well.

| SMILES | IC50 ([1]; Homo sapiens, HCT-116, 36 h) [nM] | IC50 ([2]; Homo sapiens, HCT-116, 36 h) [nM] | IC50 [1] [nM] | IC50 [2] [nM] |
| --- | --- | --- | --- | --- |
| CS(=O)(=O)Cc1ccc(C(=O)Nc2nnc(-c3ccccc3)s2)cc1NC(=O)CN1CCOCC1 [Example 235, 4-[(methylsulfonyl)methyl]-3-[(morpholin-4-ylacetyl)amino]-N-(5-phenyl-1,3,4-thiadiazol-2-yl)benzamide] | 1310 | ≥ 50000 |  |  |
| CC(C(=O)Nc1cc(C(=O)Nc2nnc(-c3ccccc3)s2)ccc1C(F)(F)F)N1CCOCC1 (stereo not drawn) [Example 128, 3-{[2-(morpholin-4-yl)propanoyl]amino}-N-(5-phenyl-1,3,4-thiadiazol-2-yl)-4-(trifluoromethyl)benzamide] | 710 | ≥ 50000 |  |  |
| CC(C(=O)Nc1cc(NC(=O)c2ccc(-c3cc(F)cc(F)c3)nc2)ccc1OC(F)(F)F)N1C[C@@H]2C[C@H]1CO2 (relative stereo) [Example 185, 6-(3,5-difluorophenyl)-N-[3-({(2R*)-2-[(1S,4S)-2-oxa-5-azabicyclo[2.2.1]hept-5-yl]propanoyl}amino)-4-(trifluoromethoxy)phenyl] nicotinamide] |  |  | 160 | 10000 |
| CC(C(=O)Nc1cc(C(=O)Nc2ccc(-c3ccccc3F)nc2)ccc1C(F)(F)F)N1CCOCC1 (stereo not drawn) [Example 225, N-[6-(2-fluorophenyl)pyridin-3-yl]-3-{[2-(morpholin-4-yl)propanoyl]amino}-4-(trifluoromethyl)benzamide] |  |  | 237 | 11200 |
| CC(C(=O)Nc1cc(C(=O)Nc2ccc(-c3cc(F)cc(F)c3)nc2)ccc1OC(F)(F)F)N1CC2CCC(C1)O2 (stereo not drawn) [Example 194, N-[6-(3,5-difluorophenyl)pyridin-3-yl]-3-{[2-(8-oxa-3-azabicyclo[3.2.1]oct-3-yl)propanoyl]amino}-4-(trifluoromethoxy)benzamide] |  |  | 39.9 | 35000 |
| CN1CCN(CC(=O)Nc2cc(C(=O)Nc3nnc(-c4ccccc4C(F)(F)F)s3)ccc2OC(F)(F)F)CC1 [Example 270, 3-{[(4-methylpiperazin-1-yl)acetyl]amino}-4-(trifluoromethoxy)-N-{5-[2-(trifluoromethyl)phenyl]-1,3,4-thiadiazol-2-yl}benzamide] | 390 | ≥ 50000 |  |  |
| O=C(Nc1ccc(OC(F)(F)F)c(NC(=O)C2(N3CCOCC3)CC2)c1)c1cnc(-c2ccccc2)s1 [Example 108, N-[3-({[1-(morpholin-4-yl)cyclopropyl]carbonyl}amino)-4-(trifluoromethoxy)phenyl]-2-phenyl-1,3-thiazole-5-carboxamide] | 463 | ≥ 50000 |  |  |
| O=C(CN1CC2CCC(C1)O2)Nc1cc(C(=O)Nc2nnc(-c3ccccc3)s2)ccc1OC(F)(F)F [Example 240, 3-[(8-oxa-3-azabicyclo[3.2.1]oct-3-ylacetyl)amino]-N-(5-phenyl-1,3,4-thiadiazol-2-yl)-4-(trifluoromethoxy)benzamide] | 1180 | ≥ 50000 |  |  |
| O=C(CN1CCOCC1)Nc1cc(C(=O)Nc2nnc(-c3ccccc3)s2)ccc1OC(F)F [Example 239, 4-(difluoromethoxy)-3-[(morpholin-4-ylacetyl)amino]-N-(5-phenyl-1,3,4-thiadiazol-2-yl)benzamide] | 2890 | ≥ 50000 |  |  |
| CN1C2CCC1CN(CC(=O)Nc1cc(C(=O)Nc3ccc(-c4ccccc4F)nc3)ccc1OC(F)(F)F)C2 [Example 166, N-[6-(2-fluorophenyl)pyridin-3-yl]-3-{[(8-methyl-3,8-diazabicyclo[3.2.1]oct-3-yl)acetyl]amino}-4-(trifluoromethoxy)benzamide] | 148 | 3900 |  |  |
| COCc1ccc(C(=O)Nc2nnc(-c3ccccc3)s2)cc1NC(=O)CN1CCOCC1 [Example 83, 4-(methoxymethyl)-3-[(morpholin-4-ylacetyl)amino]-N-(5-phenyl-1,3,4-thiadiazol-2-yl)benzamide] | 515 | ≥ 50000 |  |  |
| COc1ccc(C(=O)Nc2nnc(-c3ccccc3)s2)cc1NC(=O)CN1CCN(C)CC1 [Example 91, 4-methoxy-3-{[(4-methylpiperazin-1-yl)acetyl]amino}-N-(5-phenyl-1,3,4-thiadiazol-2-yl)benzamide] | 650 | 44000 |  |  |

Continued by falling IC50 ([1]; Homo sapiens, HCT-116, 36 h), values first:

| IC50 ([1]; Homo sapiens, HCT-116, 36 h) [nM] | IC50 ([2]; Homo sapiens, HCT-116, 36 h) [nM] | IC50 [1] [nM] | IC50 [2] [nM] | SMILES |
| --- | --- | --- | --- | --- |
| 315 | ≥ 50000 |  |  | COCc1ccc(C(=O)Nc2nnc(-c3ccccc3C)s2)cc1NC(=O)CN1CCOCC1 [Example 176, 4-(methoxymethyl)-N-[5-(2-methylphenyl)-1,3,4-thiadiazol-2-yl]-3-[(morpholin-4-ylacetyl)amino]benzamide] |
| 285 | ≥ 50000 |  |  | COC(=O)c1ccc(C(=O)Nc2nnc(-c3ccccc3)s2)cc1NC(=O)CN1CCOCC1 [Example 106, methyl 2-[(morpholin-4-ylacetyl)amino]-4-[(5-phenyl-1,3,4-thiadiazol-2-yl)carbamoyl]benzoate] |
| 270 | ≥ 50000 |  |  | CC(C(=O)Nc1cc(C(=O)Nc2ccc(-c3ccc(C(F)F)cc3)nc2)ccc1OC(F)(F)F)N1CCOCC1 (stereo not drawn) [Example 112, N-{6-[4-(difluoromethyl)phenyl]pyridin-3-yl}-3-{[2-(morpholin-4-yl)propanoyl]amino}-4-(trifluoromethoxy)benzamide] |
| 240 | ≥ 50000 |  |  | O=C(Nc1nnc(-c2ccccc2)s1)c1ccc(O)c(NC(=O)C2(N3CCOCC3)CC2)c1 [Example 93, 4-hydroxy-3-({[1-(morpholin-4-yl)cyclopropyl]carbonyl}amino)-N-(5-phenyl-1,3,4-thiadiazol-2-yl)benzamide] |
| 215 | 7100 |  |  | Cc1ccccc1-c1nnc(NC(=O)c2ccc(OC(F)F)c(NC(=O)CN3CCN(C)CC3)c2)s1 [Example 175, 4-(difluoromethoxy)-N-[5-(2-methylphenyl)-1,3,4-thiadiazol-2-yl]-3-{[(4-methylpiperazin-1-yl)acetyl]amino}benzamide] |
| 205 | 36500 |  |  | CN1CCN(CC(=O)Nc2cc(C(=O)Nc3nnc(-c4ccccc4Cl)s3)ccc2OC(F)(F)F)CC1 [Example 148, N-[5-(2-chlorophenyl)-1,3,4-thiadiazol-2-yl]-3-{[(4-methylpiperazin-1-yl)acetyl]amino}-4-(trifluoromethoxy)benzamide] |
| 150 | ≥ 50000 |  |  | COCCN(C)CC(=O)Nc1cc(C(=O)Nc2nnc(-c3ccccc3)s2)ccc1OC(F)(F)F [Example 85, 3-{[N-(2-methoxyethyl)-N-methylglycyl]amino}-N-(5-phenyl-1,3,4-thiadiazol-2-yl)-4-(trifluoromethoxy)benzamide] |
| 148 | 8800 |  |  | CC(C(=O)Nc1cc(NC(=O)c2ccc(-c3cccc(F)c3)nc2)ccc1OC(F)(F)F)N1C[C@@H]2C[C@H]1CO2 (relative stereo) [Example 193, 6-(3-fluorophenyl)-N-[3-({(2R*)-2-[(1S,4S)-2-oxa-5-azabicyclo[2.2.1]hept-5-yl]propanoyl}amino)-4-(trifluoromethoxy)phenyl] nicotinamide] |
| 144 | 15000 |  |  | CC(C(=O)Nc1cc(NC(=O)c2ccc(-c3cc(F)cc(F)c3)nc2)ccc1OC(F)(F)F)N1C[C@@H]2C[C@H]1CO2 (stereo partly drawn) [Example 198, 6-(3,5-difluorophenyl)-N-[3-({2-[(1S,4S)-2-oxa-5-azabicyclo[2.2.1]hept-5-yl]propanoyl}amino)-4-(trifluoromethoxy)phenyl] nicotinamide] |
